Results from patent US6838574B1, “Dicarba-closo-dodecarborane derivatives” (Institute of Medicinal Molecular Design, Inc., priority 1999, dated 2005).

How the values were obtained:
Type in all cases: cell-based
[1] = target: T1, rat estrogen receptor (pCI-rER α) (Rattus norvegicus, UniProt P06211); assay: Antiestrogenic activity, luciferase reporter gene assay with coexisting β-estradiol; conditions: for IC50: coexisting β-estradiol 1 × 10^−9M
T1 construct: expressed in transfected cells; host or cells: COS-1 cells
T1 sequence (P06211 1-600): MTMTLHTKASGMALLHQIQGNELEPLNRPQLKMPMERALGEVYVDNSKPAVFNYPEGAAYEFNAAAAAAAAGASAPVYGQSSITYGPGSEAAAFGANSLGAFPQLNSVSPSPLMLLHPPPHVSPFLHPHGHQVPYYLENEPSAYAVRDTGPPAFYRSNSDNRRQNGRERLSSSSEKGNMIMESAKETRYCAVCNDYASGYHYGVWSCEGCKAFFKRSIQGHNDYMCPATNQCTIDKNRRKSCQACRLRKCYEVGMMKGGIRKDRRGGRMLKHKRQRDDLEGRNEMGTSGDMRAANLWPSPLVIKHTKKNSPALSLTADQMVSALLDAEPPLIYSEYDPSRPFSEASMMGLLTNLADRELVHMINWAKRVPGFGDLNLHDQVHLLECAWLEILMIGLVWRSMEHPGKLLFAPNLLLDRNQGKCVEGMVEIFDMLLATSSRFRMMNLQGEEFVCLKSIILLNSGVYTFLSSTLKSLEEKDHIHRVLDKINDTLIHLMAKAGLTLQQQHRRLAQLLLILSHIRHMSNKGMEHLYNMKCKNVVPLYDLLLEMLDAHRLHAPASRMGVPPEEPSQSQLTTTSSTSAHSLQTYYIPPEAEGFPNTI
Protocol: (§1) As estrogenic activity, estrogen receptor-dependent transcriptional activation abilities of the test compounds were determined by the r porter gene assay using luciferase gene. COS-1 cells were cultured using a DMEM medium containing an antibiotics and 5% bovine fetal serum in the wells of 24 well plates (cell density: 5 to 6×10^4/well) at 37° C. for one night under 5% carbon dioxide. On the next day, the medium was changed to DMEM medium not containing Phenol Red. Using gene introducing reagent Tfx-20 (Promega), reporter plasmid EREx3-pGL-TK, in which rat estrogen receptor expression plasmid pCI-rER α and an estrogen responsive sequence were placed upstream of the luciferase gene, and β-galactosidase expression plasmid pCMV β used as an internal standard were introduced into cells. The cells were cultured for 2 h, and the medium was changed to DMEM not containing Phenol Red but containing active charcoal-treated serum.
(§2) The culture was added with each test compound dissolved in ethanol at various concentrations (final ethanol concentration at 0.5%) and then cultivation was continued at 37° C. for one night under 5% carbon dioxide. On the next day, the cells were lysed and enzymatic activity of luciferase expressed was measured by using a chemiluminometer. The values were standardized based on galactocidase enzymatic activity, and then compared with the values obtained by experiments using no test compound and used as values of activity at various concentrations. […] The estrogenic activities in the table are shown as concentrations for 50% activity (EC50 values) which give 50% activities relative to luciferase activity regarded as 100 that is expressed by treatment with the control compound β-estradiol at 10 nM. Each compound tested in this experiment has a high estrogenic activity.
As antiestrogenic activities, estrogen receptor-dependent transcriptional activation abilities of the test compounds were measured by the reporter gene assay using luciferase gene in the same manner as the estrogen activity measurement. In Table 7, antiestrogenic activities of test compounds are indicated as IC50 values as 50% inhibitory concentrations relative to the luciferase activity regarded as 100 which is expressed by β-estradiol at 1 nM coexisting in the experimental system. Each compound tested in this experiment has antiestrogenic activity.

[2] = tested on: human promyelocytic leukemia cell strain HL-60; assay: HL-60 differentiation induction, test compound alone; conditions: for differentiation inducing activity at low concentration (in words): 0.01 μM test compound; for differentiation inducing activity at low concentration (in words) / differentiation inducing activity (in words): HL-60; for percentage of differentiated cells, no coexisting compound: HL-60, 4 days, control <10; for differentiation inducing activity (in words): test compound alone
Protocol: Inhibitory activity against proliferation of human promyelocytic leukemia cell strain HL-60 was evaluated an index of anti-leukemia activity. Subcultured HL-60 cells were seeded with the initial cell number of 8×10^4 cells/ml in the RPMI 1640 medium containing bovine fetal serum and an antibiotics. Each test compound was added at various concentrations and the mixture was cultured at 37° C. Four days later, cell number was counted. Anti-leukemia activity of each test compound was shown in the tables as percentage values of differentiated cells, which cells were not differentiated in the absence of the test drug, […] observation and NBT reducing ability of the cells as indexes.

[3] = tested on: human promyelocytic leukemia cell strain HL-60; assay: HL-60 differentiation with coexisting differentiation inducer Am80 (anti-differentiation activity); conditions: for percentage of differentiated cells, coexisting compound Am80: coexisting Am80 3.3 × 10^−10M, control 55
[4] = tested on: human promyelocytic leukemia cell strain HL-60; assay: HL-60 differentiation with coexisting HX630 (enhancer of differentiation inducers); conditions: for percentage of differentiated cells, coexisting compound HX630: coexisting HX630 1 × 10^−7M, control <10; for differentiation inducing activity with HX630 (in words): coexisting HX630 (Table 3)
[5] = target: T1, rat estrogen receptor (pCI-rER α); assay: Estrogenic activity, estrogen receptor-dependent luciferase reporter gene assay in COS-1 cells; conditions: for EC50: 50% of luciferase activity of β-estradiol at 10 nM (=100), COS-1; for Relative Activity (%) at the Same Amount of β-estradiol: β-estradiol = 100
Protocol: as §1, §2
Estrogenic activities, i.e., estrogen receptor-dependent transcriptional abilities of test compounds, were determined by the reporter gene assay using the luciferase gene in the same manner as those described above. In this experiment (Table 6), estrogenic activities at 0.1 nM, 1 nM, and 10 nM of the test compounds are shown as relative values in view of the luciferase activity regarded as 100 which is expressed at the same amounts of β-estradiol as a control, and intensities of activities were compared. Each compound tested in this experiment has high estrogenic activity.

[6] = test compound 1 μM, morphology and NBT reducing ability
[7] = coexisting Am80 1×10^−9 M (Table 4)

## 1-(4-hydroxyphenyl)-2(4-dimethylamino-ethoxyphenyl)-1,2-dicarba-closo-dodecaborane [BR362]
[1]; coexisting β-estradiol 1 nM, tamoxifen as control
  antiestrogenic activity (in words): strong activity comparable to that of antiestrogenic drug tamoxifen
[1]
  IC50: 30 nM

## 4-[3-(2-propyl-1,2-dicarba-closo-dodecaboran-1-yl)phenylamino]benzoic acid [BR453]
[2]
  differentiation inducing activity at low concentration (in words): activities were maintained
  differentiation inducing activity (in words): strong differentiation inducing activities
[2]; test compound 0.01 μM
  percentage of differentiated cells, no coexisting compound: 80%
[2]; [6]
  percentage of differentiated cells, no coexisting compound: 80%

## 4-[4-(2-methyl-1,2-dicarba-closo-dodecaboran-1-yl) phenylamino]benzoic acid [BR401]
[3]; HL-60
  percentage of differentiated cells, coexisting compound Am80: 60%
[4]; HL-60
  percentage of differentiated cells, coexisting compound HX630: 75%
[2]
  differentiation inducing activity at low concentration (in words): activities were maintained
  differentiation inducing activity (in words): strong differentiation inducing activities
[2]; test compound 0.01 μM
  percentage of differentiated cells, no coexisting compound: 26%
[2]; [6]
  percentage of differentiated cells, no coexisting compound: 70%

## 4-[[3-(1,2-Dicarba-closo-dodecaboran-1-yl)phenyl]carboxamide]benzoic acid [BR350]
[3]; HL-60
  percentage of differentiated cells, coexisting compound Am80: 60%
[4]; HL-60
  percentage of differentiated cells, coexisting compound HX630: 48%
[4]
  differentiation inducing activity with HX630 (in words): differentiation inducing activities
[2]; [6]
  percentage of differentiated cells, no coexisting compound: 11%

## 1-(2-hydroxyphenyl)-12-(3-dimethylaminoethoxyphenyl)-1,12-dicarba-closo-dodecaborane [BR172]
[1]
  IC50: 600 nM

## 4-(2,3,4,5,6,7,8,9,10,11-decamethyl-1,12-dicarba-closo-dodecaborane-1-carbonylamino) benzoic acid [BR635]
[3]; [7]
  anti-differentiation activity (in words): remarkable anti-differentiation activities

## 4-[2-(1,2-dicarba-closo-dododecaboran-1-yl)-(E)-ethenylcarboxamide]benzoic acid [BR110]
[3]; HL-60
  percentage of differentiated cells, coexisting compound Am80: 60%
[4]; HL-60
  percentage of differentiated cells, coexisting compound HX630: 48%
[4]
  differentiation inducing activity with HX630 (in words): differentiation inducing activities
[2]; [6]
  percentage of differentiated cells, no coexisting compound: 12%

## 4-[3-(2-methyl-1,2-dicarba-closo-dodecaboran-1-yl)phenylcarbamoyl]benzoic acid [BR251]
[3]; HL-60
  percentage of differentiated cells, coexisting compound Am80: 55%
[4]; HL-60
  percentage of differentiated cells, coexisting compound HX630: 77%
[4]
  differentiation inducing activity with HX630 (in words): differentiation inducing activities
[2]; [6]
  percentage of differentiated cells, no coexisting compound: 8%

## 4-(2,3,4,5,6,7,8,9,10,11-decamethyl-1,12-dicarba-closo-dodecaborane-1-carbonylamino) benzoic acid [BR630]
[3]; [7]
  anti-differentiation activity (in words): remarkable anti-differentiation activities

## 1-hydrocarbonyl-12-(4-hydroxyphenyl)-12-dicarba-closo-dodecaborane [BE130]
[5]
  EC50: 10 nM

## 1-(3-hydroxypropyl)-7-(4-hydroxyphenyl)-1,7-dicarba-closo-dodecaborane [BE223]
[5]; 1 nM
  Relative Activity (%) at the Same Amount of β-estradiol: 20%
[5]; 10 nM
  Relative Activity (%) at the Same Amount of β-estradiol: 51%

## 1-(2-hydroxyethyl)-7-(4-hydroxyphenyl)-1,7-dicarba-closo-dodecaborane [BE222]
[5]; 1 nM
  Relative Activity (%) at the Same Amount of β-estradiol: 38%
[5]; 10 nM
  Relative Activity (%) at the Same Amount of β-estradiol: 85%

## 4-{N-methyl-[2-methyl-4-(2-methyl-1,2-dicarba-closo-dodecaboran-1-yl)]phenylamino}benzoic acid [BR431]
[3]; HL-60
  percentage of differentiated cells, coexisting compound Am80: 55%
[4]; HL-60
  percentage of differentiated cells, coexisting compound HX630: 12%
[2]; [6]
  percentage of differentiated cells, no coexisting compound: 10%

## 4-[4-(2-propyl-1,2-dicarba-closo-dodecaboran-1-yl)phenylamino]benzoic acid [BR403]
[2]
  differentiation inducing activity at low concentration (in words): activities were maintained
  differentiation inducing activity (in words): strong differentiation inducing activities
[2]; test compound 0.01 μM
  percentage of differentiated cells, no coexisting compound: 84%
[2]; [6]
  percentage of differentiated cells, no coexisting compound: 82%

## CC1(C)CCC(C)(C)c2cc(NC(=O)c3ccc(C(=O)O)cc3)ccc21 [Am80, 4-[(5,6,7,8-tetrahydro-5,5,8,8-tetramethyl-2-naphthalenyl)carbamoyl]benzoic acid, reference compound]
[3]; Am80 3.3 × 10^−10M alone, HL-60
  percentage of differentiated cells, control (Am80 without test compound): Am80 3.3 × 10^−10M (control: 55) %

## 1-hydroxyethyl-12-(4-hydroxyphenyl)-1,12-dicarba-closo-dodecaborane [BE121]
[5]
  EC50: 1 nM
[5]; EC50 experiment (Table 5)
  estrogenic activity compared with β-estradiol (in words): much higher activity than that of β-estradiol

## 4-{[4-(1,2-dicarba-closo-dodecaboran-1-yl)phenyl]carboxamide}benzoic acid [BR300]
[3]; HL-60
  percentage of differentiated cells, coexisting compound Am80: 37%
[4]; HL-60
  percentage of differentiated cells, coexisting compound HX630: 8%
[2]; [6]
  percentage of differentiated cells, no coexisting compound: 6%

## 1-(3-hydroxypropyl)-7-(3-hydroxyphenyl)-1,7-dicarba-closo-dodecaborane [BE423]
[5]; 1 nM
  Relative Activity (%) at the Same Amount of β-estradiol: <10%
[5]; 10 nM
  Relative Activity (%) at the Same Amount of β-estradiol: 15%

## CC1(C)CCC(C)(C)c2cc3c(cc21)Sc1ccccc1N=C3c1ccc(C(=O)O)cc1 [HX630, 4-[2,3-(2,5-dimethyl-2,5-hexano)dibenzo-[b,f]-[1,4]thiazepin-11-yl]benzoic acid, reference compound]
[4]; HX630 1 × 10^−7M alone, HL-60
  percentage of differentiated cells, control (HX630 without test compound): HX630 1 × 10^−7M (control: <10) %

## 1-(2-hydroxymethyl)-12-(3-hydroxyphenyl)-1,12-dicarba-closo-dodecaborane [BE320]
[5]; 0.1 nM
  Relative Activity (%) at the Same Amount of β-estradiol: 116%
[5]; 1 nM
  Relative Activity (%) at the Same Amount of β-estradiol: 127%
[5]; 10 nM
  Relative Activity (%) at the Same Amount of β-estradiol: 127%
[5]; relative activity experiment (Table 6)
  estrogenic activity compared with β-estradiol (in words): much higher activities than that of β-estradiol

## 4-[4-(2-methyl-1,2-dicarba-closo-dodecaboran-1-yl)-phenylcarbamoyl]benzoic acid [BR201]
[3]; HL-60
  percentage of differentiated cells, coexisting compound Am80: 5%
[3]; coexisting Am80 (Table 2)
  anti-differentiation activity (in words): strong anti-differentiation activity
[4]; HL-60
  percentage of differentiated cells, coexisting compound HX630: 12%
[2]; [6]
  percentage of differentiated cells, no coexisting compound: 11%

## 1-(4-hydroxyphenyl)-1,7-dicarba-closo-dodecaborane [BE200]
[5]; 1 nM
  Relative Activity (%) at the Same Amount of β-estradiol: 45%
[5]; 10 nM
  Relative Activity (%) at the Same Amount of β-estradiol: 72%
[5]
  EC50: 2 nM
